Reference: paper PMC7083851, “Extended pharmacodynamic responses observed upon PROTAC-mediated degradation of RIPK2” (Communications Biology, 2020)
Values joined by “and” are separate entries in the source; they are usually repeats but may differ in a detail not shown here. Identical values can stand only once.

How the values were obtained:
Rat intravenous PK = assay type: in vivo
Description: Rats (n = 3) received a single intravenous (IV) bolus administration (1 mg/kg, 4 mL/kg, n = 3 rats) formulated as a solution in saline with the pH adjusted to 4.0.
Aliquots of diluted whole blood (50:50) were analysed using quantitative high-performance liquid chromatography with tandem mass spectrometric detection (LC/MS/MS) following protein precipitation. […] PK parameters were generated following non-compartmental analysis (Phoenix® WinNonlin® (Certara, L.P., St. Louis, MO)) of the resulting concentration-time data.

cIAP1 = target: T1, cIAP1 (Homo sapiens, UniProt Q13490); assay type: cell-based; details: human PBMCs, 24 h, 1uM
T1 construct: endogenous in cells; host or cells: primary human PBMCs
Description: Where the assessment of cytokines was performed, L18-MDP was added to the cell culture media (1 μg/ml) or to the rat blood samples (100 ng/ml) and samples were incubated for up to 4 h. […] Samples were them spun down at 1000 g and the cell culture supernatant, plasma or serum were collected for cytokines assessment, while cell pellets were used for RIPK2 and/or cIAP1, cIAP2, and XIAP levels analysis via immunoblotting.
Simple Western immunoassay: Cell lysates were mixed with 5× concentrated master mix (Protein Simple) and denatured at 95 °C on a heat block for 5 min together with the provided ladder (Protein Simple). Antibodies were diluted in the provided buffer as following: anti-RIPK2 (1:10 or 1:50), anti-cIAP1(1:10), anti-cIAP2 (1:10), anti-XIAP (1:10), mouse anti-β-actin (Abcam - 1:1000), rabbit anti-β-actin (Abcam - 1:50) and anti-vinculin (1:100). All reagents (blocking buffer, primary and secondary antibodies, streptavadin, luminol/peroxide, separation matrix, stacking matrix and water) were added to the Protein Simple plate containing the ladder and lysates and the plate was placed in a Protein Simple Western instrument and the Simple Western default size assay protocol was used. […] The area under the peak values obtained for RIPK2, cIAP1, cIAP2 or XIAP were normalized relative to the control protein values.

cIAP2 = target: T2, cIAP2 (Homo sapiens, UniProt Q13489); test: cIAP2 levels in human PBMCs, 24 h, capillary immunoassay; assay type: cell-based; details: up to 1uM
T2 construct: endogenous in cells; host or cells: primary human PBMCs
Description: Where the assessment of cytokines was performed, L18-MDP was added to the cell culture media (1 μg/ml) or to the rat blood samples (100 ng/ml) and samples were incubated for up to 4 h. For human blood, 250 ng/ml MDP (Invivogen) was added following compound treatment and the samples were further incubated for 5 h. Samples were them spun down at 1000 g and the cell culture supernatant, plasma or serum were collected for cytokines assessment, while cell pellets were used for RIPK2 and/or cIAP1, cIAP2, and XIAP levels analysis via immunoblotting.
Simple Western immunoassay: Cell lysates were mixed with 5× concentrated master mix (Protein Simple) and denatured at 95 °C on a heat block for 5 min together with the provided ladder (Protein Simple). Antibodies were diluted in the provided buffer as following: anti-RIPK2 (1:10 or 1:50), anti-cIAP1(1:10), anti-cIAP2 (1:10), anti-XIAP (1:10), mouse anti-β-actin (Abcam - 1:1000), rabbit anti-β-actin (Abcam - 1:50) and anti-vinculin (1:100). […] All samples were analyzed using the associated Compass software 3.1.7. […]
Cell viability was assessed by using Cell Titer
Kit (Promega) according to the manufacturer’s instructions. Samples were analysed using […]

[1] = tested on: spontaneous IL-1β, IL-6, and TNFα release; test: Spontaneous cytokine release (IL-1β, IL-6, TNFα) from Crohn's disease patient intestinal biopsies; assay type: cell-based, human; details: for IL-1b (Ctrl=DMSO = 100) / IL-6 (Ctrl=DMSO = 100) / TNFa (Ctrl=DMSO = 100): individual biopsies, fig 4e
Description: Colonic biopsies or tissues were obtained during endoscopy or via surgical resection from Crohn’s Disease (CD) or Ulcerative Colitis (UC) patients (St Bartholomew’s Hospital, London). All patients gave informed written consent. For surgical specimens, the mucosa was dissected away from the submucosa and cut into pieces of ~10–20 mg. […] The supernatants were collected for cytokine measurement as detailed in cytokines assay section while tissues were used to determine RIPK2 levels.
(§1) Cytokine measurement assay: Cytokine levels were measured in rat plasma or rat PBMCs cell culture supernatants using rat V-Plex TNFα, in human plasma or human PBMCs cell culture supernatants with either TNFα tissue culture or 7-plex kit. Rat serum and tissues samples from the in vivo L18-MDP acute inflammation model were analyzed using the rat TNFα, Il-6 and IL-8 U-Plex kits. All kits provided by Meso Scale Discovery (MSD). Levels of cytokines spontaneously released from human colon biopsies cell culture supernatants were measured using Human IL-1 beta/IL-1F2 DuoSet ELISA (Bio-techne), Human IL-6 ELISA (Immunotools) and Human TNF-alpha DuoSet ELISA (Bio-techne). All samples were processed accordingly to the manufacturer’s instructions. The MSD plates were analyzed using the MSD sector imager 6000 plate reader and cytokines concentration (pg/ml) was obtained by using the MSD DISCOVERY WORKBENCH software version 4.0.12.1

[2] = tested on: L18-MDP-induced cytokine release; test: In vivo L18-MDP acute inflammation model, distal colon cytokines; set-up: species or system rat; key to cytokine level (fig 6g) / cytokine level (fig 6h) / cytokine level (fig 6i): cytokine concentration in pg/ml (MSD U-Plex); details: for cytokine level (fig 6g) / cytokine level (fig 6i) / cytokine level (fig 6h): distal colon, individual rats, beside L18-MDP control
Description: Cytokine levels were determined in serum generated from the terminal blood samples and in tissue lysates as detailed below.
as §1

T2 sequence (Q13489 whole entry): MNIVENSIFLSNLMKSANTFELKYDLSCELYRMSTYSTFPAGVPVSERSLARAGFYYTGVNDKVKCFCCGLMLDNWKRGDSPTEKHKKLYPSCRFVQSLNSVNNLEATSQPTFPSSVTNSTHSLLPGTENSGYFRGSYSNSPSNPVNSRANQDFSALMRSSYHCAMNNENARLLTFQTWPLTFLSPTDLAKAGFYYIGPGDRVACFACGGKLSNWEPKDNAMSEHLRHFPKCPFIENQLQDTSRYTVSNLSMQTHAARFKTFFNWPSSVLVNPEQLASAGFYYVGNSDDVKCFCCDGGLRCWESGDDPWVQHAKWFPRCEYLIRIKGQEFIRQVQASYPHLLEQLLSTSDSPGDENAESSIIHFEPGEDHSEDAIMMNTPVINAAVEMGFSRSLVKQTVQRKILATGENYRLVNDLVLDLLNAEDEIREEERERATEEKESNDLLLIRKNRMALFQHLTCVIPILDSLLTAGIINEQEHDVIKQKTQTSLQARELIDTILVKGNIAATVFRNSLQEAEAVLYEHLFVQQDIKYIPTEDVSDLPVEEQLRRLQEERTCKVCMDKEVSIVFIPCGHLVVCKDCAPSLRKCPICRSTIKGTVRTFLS
T1 sequence (Q13490 whole entry): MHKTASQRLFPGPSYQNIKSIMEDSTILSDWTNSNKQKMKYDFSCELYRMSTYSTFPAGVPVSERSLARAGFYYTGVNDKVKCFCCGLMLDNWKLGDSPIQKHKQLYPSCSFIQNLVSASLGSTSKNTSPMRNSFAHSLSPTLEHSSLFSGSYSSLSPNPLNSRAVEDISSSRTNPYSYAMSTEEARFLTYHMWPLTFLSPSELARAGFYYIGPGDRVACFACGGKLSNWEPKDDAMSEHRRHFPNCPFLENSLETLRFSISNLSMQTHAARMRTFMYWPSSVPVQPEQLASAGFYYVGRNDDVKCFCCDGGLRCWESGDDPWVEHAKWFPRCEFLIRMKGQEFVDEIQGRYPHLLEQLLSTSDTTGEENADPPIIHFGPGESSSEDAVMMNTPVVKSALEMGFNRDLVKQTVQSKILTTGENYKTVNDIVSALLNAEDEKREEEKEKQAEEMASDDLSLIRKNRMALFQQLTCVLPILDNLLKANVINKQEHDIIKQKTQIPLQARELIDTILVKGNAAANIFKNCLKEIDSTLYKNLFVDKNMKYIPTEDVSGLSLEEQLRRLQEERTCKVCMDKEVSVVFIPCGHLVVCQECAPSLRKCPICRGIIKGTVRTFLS

Structure (SMILES): CN[C@@H](C)C(=O)N[C@H](C(=O)N1CCC[C@H]1c1nc(C(=O)c2ccc(F)cc2)cs1)C1CCN(C(=O)c2cnc(N3CCN(CCOc4cc5ncnc(Nc6n[nH]c(C)c6C)c5cc4S(=O)(=O)C(C)(C)C)CC3)nc2)CC1 [PROTAC 4]
- mean intravenous clearance in rats, in words (Rat intravenous PK; in vivo, iv): less than a quarter of liver blood flow
- clearance (Rat intravenous PK; male, Sprague Dawley (PROTAC 4), Han Wistar (PROTAC 6), whole blood, IV bolus (4: 2 mg/kg; 6: 1 mg/kg)): 1.08 L/h/kg
- half-life (Rat intravenous PK; male, Sprague Dawley (PROTAC 4), Han Wistar (PROTAC 6), whole blood, IV bolus (4: 2 mg/kg; 6: 1 mg/kg), read-out: Rat T½ (converted)): 6.9 h
- Vd (Rat intravenous PK; male, Sprague Dawley (PROTAC 4), Han Wistar (PROTAC 6), whole blood, IV bolus (4: 2 mg/kg; 6: 1 mg/kg), read-out: Rat Vdss): 11 L/kg

Structure (SMILES): CN[C@@H](C)C(=O)N[C@H](C(=O)N1C[C@@H](NC(=O)c2cnc(N3CCN(CCCOc4cc5ncnc(Nc6n[nH]c(C)c6C)c5cc4S(=O)(=O)C(C)(C)C)CC3)cn2)C[C@H]1C(=O)Nc1c(F)cccc1F)C(C)(C)C [PROTAC 6]
- reduction in cIAP1 levels (cIAP1): ~ 25%
- change in cIAP2 protein levels, in words (cIAP2): no change in protein levels
- IC50 ([1]; Homo sapiens, 24 h, read-out: IC50 inhibition of spontaneous cytokine release): 1 to 3 nM
- IL-1b (Ctrl=DMSO = 100) ([1]; compound concentration 0.05 nM): 94 and 86 and 97
- IL-6 (Ctrl=DMSO = 100) ([1]; compound concentration 0.05 nM): 105 and 101 and 86
- TNFa (Ctrl=DMSO = 100) ([1]; compound concentration 0.05 nM): 90 and 96
- IL-1b (Ctrl=DMSO = 100) ([1]; compound concentration 0.5 nM): 59 and 61 and 39 and 57
- IL-6 (Ctrl=DMSO = 100) ([1]; compound concentration 0.5 nM): 98 and 80 and 79 and 97 and 84 and 33
- TNFa (Ctrl=DMSO = 100) ([1]; compound concentration 0.5 nM): 87 (2×) and 88 and 52
- IL-1b (Ctrl=DMSO = 100) ([1]; compound concentration 5 nM): 50 and 72 and 71 and 12 and 58 and 31 and 5 and 56 and 44 and 41 (2×) and 49 and 74 and 81
- IL-6 (Ctrl=DMSO = 100) ([1]; compound concentration 5 nM): 56 and 35 and 85 (2×) and 14 (2×) and 49 and 48 and 89 and 101 and 72 and 66 and 70 and 53
- TNFa (Ctrl=DMSO = 100) ([1]; compound concentration 5 nM): 38 and 23 and 69 (2×) and 35 (2×) and 42 and 24 and 87 and 58 and 34 and 11 and 66 and 31 and 41
- IL-1b (Ctrl=DMSO = 100) ([1]; compound concentration 50 nM): 12 (2×) and 26 and 66 and 31 and 32 and 4 and 29 and 9 and 18 and 69 and 5 and 52 and 14
- IL-6 (Ctrl=DMSO = 100) ([1]; compound concentration 50 nM): 35 and 29 and 12 (2×) and 31 (2×) and 16 (2×) and 75 and 44 and 24 and 50 and 63 and 23 and 57
- TNFa (Ctrl=DMSO = 100) ([1]; compound concentration 50 nM): 42 and 16 and 50 (2×) and 37 (2×) and 0 and 30 (2×) and 24 and 78 and 25 and 60 and 34 and 59
- cytokine level (fig 6g) ([2]; time 6 h): 8.69 and 8.02 and 5.35 and 6.46 and 7.8
- cytokine level (fig 6i) ([2]; time 6 h): 31.46 and 23.18 and 30.08 and 19.04 and 32.01
- cytokine level (fig 6h) ([2]; time 6 h): 3.67 and 4.23 and 2.54 and 4.43 and 8.37
- cytokine level (fig 6g) ([2]; time 24 h): 4.03 and 4.53 and 7.05 and 7.3
- cytokine level (fig 6i) ([2]; time 24 h): 16.22 and 17.82 and 19.15 and 9.84 and 7.71
- cytokine level (fig 6h) ([2]; time 24 h): 8.38 and 32.32 and 14.19
- cytokine level (fig 6g) ([2]; time 72 h): 28.89 and 34.42 and 15.25 and 46.36 and 44.94
- cytokine level (fig 6i) ([2]; time 72 h): 33.56 and 43.62 and 27.96 and 81.66 and 38.4
- cytokine level (fig 6h) ([2]; time 72 h): 48.27 and 55.56 and 29.21 and 61.98 and 48.03
- cytokine level (fig 6g) ([2]; time 240 h): 191.84 and 104.55 and 3.3 and 94.35
- cytokine level (fig 6i) ([2]; time 240 h): 85.43 and 111.93 and 35.63 and 31.07
- cytokine level (fig 6h) ([2]; time 240 h): 84.17 and 74.27 and 51.45 and 69.43
- cytokine level (fig 6g) ([2]; time 408 h): 87.06 and 148.63 and 32.92 and 94.97 and 44.56
- cytokine level (fig 6i) ([2]; time 408 h): 82.16 and 113.16 and 73.99 and 122.46 and 42.47
- cytokine level (fig 6h) ([2]; time 408 h): 89.41 and 138.46 and 73.92 and 116.87 and 57.61
- release of TNFα and IL-8 in distal colon, in words ([2]; rat, 0.3 mg/kg SC, intravenous L18-MDP challenge): significantly inhibited for up to six days post-dose
